Measured values: PubChem BioAssay (NCI)
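Dose response: 5 concentrations. Exposure: 48 h. Format: 96-well plates. Endpoint: linear interpolation; highest concentration if not reached. TGI marks complete inhibition of growth.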

system: NCI-H522 lung; test: NCI-60 cell line screen, 48 h

`CCOC(=O)/C=C/CC(C)(C)CCOC(C)=O` and `Cc1n[nH]c(=O)n1/N=C/c1ccc(Cl)cc1` cannot be ordered by TGI: greater than 10 µM for the first, greater than 100 µM for the second.

First: c1csc(-c2ccc(-c3cccc4nsnc34)s2)c1
Second: N#Cc1c(-c2ccccc2)/c(=C\Nc2cccc(C(F)(F)F)c2)c(=O)n2c1nc1ccccc12
The TGI of the first is higher: greater than 100 µM for the first, 32.1 µM for the second.

system: SF-268 CNS; test: NCI-60 cell line screen, 48 h

`CCOC(=O)/C=C/CC(C)(C)CCOC(C)=O` and `Cc1n[nH]c(=O)n1/N=C/c1ccc(Cl)cc1` cannot be ordered by TGI: greater than 10 µM for the first, greater than 100 µM for the second.

`c1csc(-c2ccc(-c3cccc4nsnc34)s2)c1` and `N#Cc1c(-c2ccccc2)/c(=C\Nc2cccc(C(F)(F)F)c2)c(=O)n2c1nc1ccccc12` cannot be ordered by TGI: greater than 100 µM for the first, greater than 100 µM for the second.

system: MCF7 breast; test: NCI-60 cell line screen, 48 h

`CCOC(=O)/C=C/CC(C)(C)CCOC(C)=O` and `N#Cc1c(-c2ccccc2)/c(=C\Nc2cccc(C(F)(F)F)c2)c(=O)n2c1nc1ccccc12` cannot be ordered by TGI: greater than 10 µM for the first, greater than 100 µM for the second.

`c1csc(-c2ccc(-c3cccc4nsnc34)s2)c1` showed a TGI greater than 100 µM.

system: RXF 393 renal; test: NCI-60 cell line screen, 48 h

`CCOC(=O)/C=C/CC(C)(C)CCOC(C)=O` and `Cc1n[nH]c(=O)n1/N=C/c1ccc(Cl)cc1` cannot be ordered by TGI: greater than 10 µM for the first, 72.3 µM for the second.

Going from `c1csc(-c2ccc(-c3cccc4nsnc34)s2)c1` to `N#Cc1c(-c2ccccc2)/c(=C\Nc2cccc(C(F)(F)F)c2)c(=O)n2c1nc1ccccc12`, the TGI falls from greater than 100 µM to 78.1 µM.

system: A498 renal; test: NCI-60 cell line screen, 48 h

`c1csc(-c2ccc(-c3cccc4nsnc34)s2)c1` and `N#Cc1c(-c2ccccc2)/c(=C\Nc2cccc(C(F)(F)F)c2)c(=O)n2c1nc1ccccc12` cannot be ordered by TGI: greater than 100 µM for the first, greater than 100 µM for the second.

Molecule `Cc1n[nH]c(=O)n1/N=C/c1ccc(Cl)cc1` has a TGI greater than 100 µM.

system: HCT-116 colon; test: NCI-60 cell line screen, 48 h

`CCOC(=O)/C=C/CC(C)(C)CCOC(C)=O` and `Cc1n[nH]c(=O)n1/N=C/c1ccc(Cl)cc1` cannot be ordered by TGI: greater than 10 µM for the first, greater than 100 µM for the second.

`c1csc(-c2ccc(-c3cccc4nsnc34)s2)c1` and `N#Cc1c(-c2ccccc2)/c(=C\Nc2cccc(C(F)(F)F)c2)c(=O)n2c1nc1ccccc12` cannot be ordered by TGI: greater than 100 µM for the first, greater than 100 µM for the second.

system: TK-10 renal; test: NCI-60 cell line screen, 48 h

`CCOC(=O)/C=C/CC(C)(C)CCOC(C)=O` and `N#Cc1c(-c2ccccc2)/c(=C\Nc2cccc(C(F)(F)F)c2)c(=O)n2c1nc1ccccc12` cannot be ordered by TGI: greater than 10 µM for the first, greater than 100 µM for the second.

`c1csc(-c2ccc(-c3cccc4nsnc34)s2)c1` was tested, and the TGI was greater than 100 µM.

system: SK-OV-3 ovarian; test: NCI-60 cell line screen, 48 h

`CCOC(=O)/C=C/CC(C)(C)CCOC(C)=O` and `Cc1n[nH]c(=O)n1/N=C/c1ccc(Cl)cc1` cannot be ordered by TGI: greater than 10 µM for the first, greater than 100 µM for the second.

Going from `c1csc(-c2ccc(-c3cccc4nsnc34)s2)c1` to `N#Cc1c(-c2ccccc2)/c(=C\Nc2cccc(C(F)(F)F)c2)c(=O)n2c1nc1ccccc12`, the TGI falls from greater than 100 µM to 91.6 µM.

system: HOP-92 NSCLC; test: NCI-60 cell line screen, 48 h

`CCOC(=O)/C=C/CC(C)(C)CCOC(C)=O` and `Cc1n[nH]c(=O)n1/N=C/c1ccc(Cl)cc1` cannot be ordered by TGI: greater than 10 µM for the first, greater than 100 µM for the second.

system: MDA-N; test: NCI-60 cell line screen, 48 h

`CCOC(=O)/C=C/CC(C)(C)CCOC(C)=O` and `Cc1n[nH]c(=O)n1/N=C/c1ccc(Cl)cc1` cannot be ordered by TGI: greater than 10 µM for the first, greater than 100 µM for the second.

Compared with `c1csc(-c2ccc(-c3cccc4nsnc34)s2)c1`, `N#Cc1c(-c2ccccc2)/c(=C\Nc2cccc(C(F)(F)F)c2)c(=O)n2c1nc1ccccc12` is lower in TGI: greater than 100 µM for the first, 91.4 µM for the second.

system: A549 NSCLC; test: NCI-60 cell line screen, 48 h

`CCOC(=O)/C=C/CC(C)(C)CCOC(C)=O` and `Cc1n[nH]c(=O)n1/N=C/c1ccc(Cl)cc1` cannot be ordered by TGI: greater than 10 µM for the first, greater than 100 µM for the second.

`c1csc(-c2ccc(-c3cccc4nsnc34)s2)c1` and `N#Cc1c(-c2ccccc2)/c(=C\Nc2cccc(C(F)(F)F)c2)c(=O)n2c1nc1ccccc12` cannot be ordered by TGI: greater than 100 µM for the first, greater than 100 µM for the second.

system: OVCAR-3 ovarian; test: NCI-60 cell line screen, 48 h

`CCOC(=O)/C=C/CC(C)(C)CCOC(C)=O` and `Cc1n[nH]c(=O)n1/N=C/c1ccc(Cl)cc1` cannot be ordered by TGI: greater than 10 µM for the first, greater than 100 µM for the second.

`c1csc(-c2ccc(-c3cccc4nsnc34)s2)c1` was tested, and the TGI was greater than 100 µM.

system: OVCAR-5 ovarian; test: NCI-60 cell line screen, 48 h

`CCOC(=O)/C=C/CC(C)(C)CCOC(C)=O` and `Cc1n[nH]c(=O)n1/N=C/c1ccc(Cl)cc1` cannot be ordered by TGI: greater than 10 µM for the first, greater than 100 µM for the second.

`c1csc(-c2ccc(-c3cccc4nsnc34)s2)c1` and `N#Cc1c(-c2ccccc2)/c(=C\Nc2cccc(C(F)(F)F)c2)c(=O)n2c1nc1ccccc12` cannot be ordered by TGI: greater than 100 µM for the first, greater than 100 µM for the second.

system: SF-539 CNS; test: NCI-60 cell line screen, 48 h

`CCOC(=O)/C=C/CC(C)(C)CCOC(C)=O` and `Cc1n[nH]c(=O)n1/N=C/c1ccc(Cl)cc1` cannot be ordered by TGI: greater than 10 µM for the first, greater than 100 µM for the second.

First: c1csc(-c2ccc(-c3cccc4nsnc34)s2)c1
Second: N#Cc1c(-c2ccccc2)/c(=C\Nc2cccc(C(F)(F)F)c2)c(=O)n2c1nc1ccccc12
The TGI of the first is higher: greater than 100 µM for the first, 37.8 µM for the second.

system: KM12 colon; test: NCI-60 cell line screen, 48 h

`CCOC(=O)/C=C/CC(C)(C)CCOC(C)=O` and `Cc1n[nH]c(=O)n1/N=C/c1ccc(Cl)cc1` cannot be ordered by TGI: greater than 10 µM for the first, greater than 100 µM for the second.

First: c1csc(-c2ccc(-c3cccc4nsnc34)s2)c1
Second: N#Cc1c(-c2ccccc2)/c(=C\Nc2cccc(C(F)(F)F)c2)c(=O)n2c1nc1ccccc12
The TGI of the first is higher: greater than 100 µM for the first, 53.4 µM for the second.

system: IGROV1 ovarian; test: NCI-60 cell line screen, 48 h

`CCOC(=O)/C=C/CC(C)(C)CCOC(C)=O` and `N#Cc1c(-c2ccccc2)/c(=C\Nc2cccc(C(F)(F)F)c2)c(=O)n2c1nc1ccccc12` cannot be ordered by TGI: greater than 10 µM for the first, greater than 100 µM for the second.

system: HS 578T breast; test: NCI-60 cell line screen, 48 h

Work on `CCOC(=O)/C=C/CC(C)(C)CCOC(C)=O` yielded a TGI greater than 10 µM.

system: SK-MEL-5 melanoma; test: NCI-60 cell line screen, 48 h

`CCOC(=O)/C=C/CC(C)(C)CCOC(C)=O` and `N#Cc1c(-c2ccccc2)/c(=C\Nc2cccc(C(F)(F)F)c2)c(=O)n2c1nc1ccccc12` cannot be ordered by TGI: greater than 10 µM for the first, greater than 100 µM for the second.

`c1csc(-c2ccc(-c3cccc4nsnc34)s2)c1` showed a TGI greater than 100 µM.

system: HL-60(TB) leukemia; test: NCI-60 cell line screen, 48 h

Work on `CCOC(=O)/C=C/CC(C)(C)CCOC(C)=O` yielded a TGI greater than 10 µM.

system: SN12C renal; test: NCI-60 cell line screen, 48 h

`CCOC(=O)/C=C/CC(C)(C)CCOC(C)=O` and `Cc1n[nH]c(=O)n1/N=C/c1ccc(Cl)cc1` cannot be ordered by TGI: greater than 10 µM for the first, greater than 100 µM for the second.

Going from `c1csc(-c2ccc(-c3cccc4nsnc34)s2)c1` to `N#Cc1c(-c2ccccc2)/c(=C\Nc2cccc(C(F)(F)F)c2)c(=O)n2c1nc1ccccc12`, the TGI falls from greater than 100 µM to 50.5 µM.

system: PC-3 prostate; test: NCI-60 cell line screen, 48 h

`CCOC(=O)/C=C/CC(C)(C)CCOC(C)=O` and `N#Cc1c(-c2ccccc2)/c(=C\Nc2cccc(C(F)(F)F)c2)c(=O)n2c1nc1ccccc12` cannot be ordered by TGI: greater than 10 µM for the first, greater than 100 µM for the second.

`c1csc(-c2ccc(-c3cccc4nsnc34)s2)c1` gave a TGI greater than 100 µM.

system: CCRF-CEM leukemia; test: NCI-60 cell line screen, 48 h

`CCOC(=O)/C=C/CC(C)(C)CCOC(C)=O` and `Cc1n[nH]c(=O)n1/N=C/c1ccc(Cl)cc1` cannot be ordered by TGI: greater than 10 µM for the first, 94.8 µM for the second.

First: c1csc(-c2ccc(-c3cccc4nsnc34)s2)c1
Second: N#Cc1c(-c2ccccc2)/c(=C\Nc2cccc(C(F)(F)F)c2)c(=O)n2c1nc1ccccc12
The TGI of the first is lower: 69.3 µM for the first, greater than 100 µM for the second.

system: MDA-MB-231 breast; test: NCI-60 cell line screen, 48 h

`CCOC(=O)/C=C/CC(C)(C)CCOC(C)=O` and `N#Cc1c(-c2ccccc2)/c(=C\Nc2cccc(C(F)(F)F)c2)c(=O)n2c1nc1ccccc12` cannot be ordered by TGI: greater than 10 µM for the first, greater than 100 µM for the second.

In the case of `c1csc(-c2ccc(-c3cccc4nsnc34)s2)c1`, the TGI is reported as greater than 100 µM.

system: MDA-MB-435; test: NCI-60 cell line screen, 48 h

`CCOC(=O)/C=C/CC(C)(C)CCOC(C)=O` and `Cc1n[nH]c(=O)n1/N=C/c1ccc(Cl)cc1` cannot be ordered by TGI: greater than 10 µM for the first, greater than 100 µM for the second.

`c1csc(-c2ccc(-c3cccc4nsnc34)s2)c1` and `N#Cc1c(-c2ccccc2)/c(=C\Nc2cccc(C(F)(F)F)c2)c(=O)n2c1nc1ccccc12` cannot be ordered by TGI: greater than 100 µM for the first, greater than 100 µM for the second.

system: 786-0 renal; test: NCI-60 cell line screen, 48 h

`CCOC(=O)/C=C/CC(C)(C)CCOC(C)=O` and `Cc1n[nH]c(=O)n1/N=C/c1ccc(Cl)cc1` cannot be ordered by TGI: greater than 10 µM for the first, greater than 100 µM for the second.

`c1csc(-c2ccc(-c3cccc4nsnc34)s2)c1` and `N#Cc1c(-c2ccccc2)/c(=C\Nc2cccc(C(F)(F)F)c2)c(=O)n2c1nc1ccccc12` cannot be ordered by TGI: greater than 100 µM for the first, greater than 100 µM for the second.

system: SNB-19 CNS; test: NCI-60 cell line screen, 48 h

`CCOC(=O)/C=C/CC(C)(C)CCOC(C)=O` and `Cc1n[nH]c(=O)n1/N=C/c1ccc(Cl)cc1` cannot be ordered by TGI: greater than 10 µM for the first, greater than 100 µM for the second.

`c1csc(-c2ccc(-c3cccc4nsnc34)s2)c1` and `N#Cc1c(-c2ccccc2)/c(=C\Nc2cccc(C(F)(F)F)c2)c(=O)n2c1nc1ccccc12` cannot be ordered by TGI: greater than 100 µM for the first, greater than 100 µM for the second.

system: SK-MEL-2 melanoma; test: NCI-60 cell line screen, 48 h

`CCOC(=O)/C=C/CC(C)(C)CCOC(C)=O` and `N#Cc1c(-c2ccccc2)/c(=C\Nc2cccc(C(F)(F)F)c2)c(=O)n2c1nc1ccccc12` cannot be ordered by TGI: greater than 10 µM for the first, greater than 100 µM for the second.

`c1csc(-c2ccc(-c3cccc4nsnc34)s2)c1` showed a TGI greater than 100 µM.

system: RPMI-8226 leukemia; test: NCI-60 cell line screen, 48 h

`CCOC(=O)/C=C/CC(C)(C)CCOC(C)=O` and `Cc1n[nH]c(=O)n1/N=C/c1ccc(Cl)cc1` cannot be ordered by TGI: greater than 10 µM for the first, greater than 100 µM for the second.

Going from `c1csc(-c2ccc(-c3cccc4nsnc34)s2)c1` to `N#Cc1c(-c2ccccc2)/c(=C\Nc2cccc(C(F)(F)F)c2)c(=O)n2c1nc1ccccc12`, the TGI falls from greater than 100 µM to 39.9 µM.

system: BT-549 breast; test: NCI-60 cell line screen, 48 h

`c1csc(-c2ccc(-c3cccc4nsnc34)s2)c1` and `N#Cc1c(-c2ccccc2)/c(=C\Nc2cccc(C(F)(F)F)c2)c(=O)n2c1nc1ccccc12` cannot be ordered by TGI: greater than 100 µM for the first, greater than 100 µM for the second.

In the case of `Cc1n[nH]c(=O)n1/N=C/c1ccc(Cl)cc1`, the TGI is reported as greater than 100 µM.

system: NCI/ADR-RES ovarian; test: NCI-60 cell line screen, 48 h

`CCOC(=O)/C=C/CC(C)(C)CCOC(C)=O` and `Cc1n[nH]c(=O)n1/N=C/c1ccc(Cl)cc1` cannot be ordered by TGI: greater than 10 µM for the first, greater than 100 µM for the second.

First: c1csc(-c2ccc(-c3cccc4nsnc34)s2)c1
Second: N#Cc1c(-c2ccccc2)/c(=C\Nc2cccc(C(F)(F)F)c2)c(=O)n2c1nc1ccccc12
The TGI of the first is higher: greater than 100 µM for the first, 80.4 µM for the second.
